Test results reported in ChEMBL document CHEMBL1201862, “PubChem BioAssay data set” (2004).
Activity calls are given as the source filed them.

Columns and labels:
Nonstructural protein 1 = Nonstructural protein 1 (Influenza A virus, UniProt Q194T2); assay type: functional, Influenza A virus (A/California/07/2009(H1N1))
Protein skinhead-1 = biological target: T1, Protein skinhead-1 (Caenorhabditis elegans, UniProt P34707); assay type: functional
T1 sequence (P34707 whole entry): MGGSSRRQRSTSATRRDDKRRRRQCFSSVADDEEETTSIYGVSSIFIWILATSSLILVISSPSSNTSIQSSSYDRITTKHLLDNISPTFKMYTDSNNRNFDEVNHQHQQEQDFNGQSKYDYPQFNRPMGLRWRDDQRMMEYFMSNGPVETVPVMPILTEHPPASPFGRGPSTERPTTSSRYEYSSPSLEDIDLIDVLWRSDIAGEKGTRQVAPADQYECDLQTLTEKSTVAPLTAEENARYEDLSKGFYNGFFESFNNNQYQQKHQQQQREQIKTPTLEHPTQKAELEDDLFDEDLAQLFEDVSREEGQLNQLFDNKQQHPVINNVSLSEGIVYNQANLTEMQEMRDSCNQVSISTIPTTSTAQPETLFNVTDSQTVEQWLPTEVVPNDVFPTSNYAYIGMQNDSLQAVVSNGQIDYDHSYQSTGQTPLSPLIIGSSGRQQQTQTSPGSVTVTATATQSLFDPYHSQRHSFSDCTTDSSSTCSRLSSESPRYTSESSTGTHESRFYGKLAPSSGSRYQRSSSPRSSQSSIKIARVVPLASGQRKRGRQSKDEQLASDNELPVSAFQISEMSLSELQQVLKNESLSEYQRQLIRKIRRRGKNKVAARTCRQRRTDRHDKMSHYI

[1] = biological target: T2, Replicative DNA helicase DnaB (Mycobacterium tuberculosis, UniProt P9WMR3); assay: DnaB intein splicing inhibitors, dose response, biochemical, cell-free fluorescence (AID 449749); assay type: functional
T2 sequence (P9WMR3 whole entry): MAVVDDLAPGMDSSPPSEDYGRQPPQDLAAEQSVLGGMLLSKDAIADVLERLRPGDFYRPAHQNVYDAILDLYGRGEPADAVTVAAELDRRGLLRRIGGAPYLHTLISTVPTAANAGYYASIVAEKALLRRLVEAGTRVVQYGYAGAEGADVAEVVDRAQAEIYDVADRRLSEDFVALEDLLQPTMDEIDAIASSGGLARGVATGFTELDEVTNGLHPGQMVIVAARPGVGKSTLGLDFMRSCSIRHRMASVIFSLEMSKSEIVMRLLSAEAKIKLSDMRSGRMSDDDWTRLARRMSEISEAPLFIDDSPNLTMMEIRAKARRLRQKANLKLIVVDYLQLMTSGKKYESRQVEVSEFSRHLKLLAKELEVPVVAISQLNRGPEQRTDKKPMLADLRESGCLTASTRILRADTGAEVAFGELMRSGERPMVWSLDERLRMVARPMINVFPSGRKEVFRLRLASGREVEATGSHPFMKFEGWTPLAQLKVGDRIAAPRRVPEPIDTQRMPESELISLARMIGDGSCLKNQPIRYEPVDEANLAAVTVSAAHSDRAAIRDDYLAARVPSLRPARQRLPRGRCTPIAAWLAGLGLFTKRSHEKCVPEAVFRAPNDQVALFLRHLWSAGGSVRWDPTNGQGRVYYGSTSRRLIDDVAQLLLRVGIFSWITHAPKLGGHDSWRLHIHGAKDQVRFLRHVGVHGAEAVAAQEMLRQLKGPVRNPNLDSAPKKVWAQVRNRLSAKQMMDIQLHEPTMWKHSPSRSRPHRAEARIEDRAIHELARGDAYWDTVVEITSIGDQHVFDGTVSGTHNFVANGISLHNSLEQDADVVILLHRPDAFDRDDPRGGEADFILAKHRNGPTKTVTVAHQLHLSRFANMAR

Protein RecA = biological target: T3, Protein RecA (Mycobacterium tuberculosis, UniProt P9WHJ3); assay: Fluorescence Cell-Free Homogeneous Dose Retest to Identify Inhibitors of RecA-Intein Splicing Activity. [Related pubchem assays (depositor defined):AID2097, AID2223, AID489010, AID492950]; assay type: functional
T3 sequence (P9WHJ3 whole entry): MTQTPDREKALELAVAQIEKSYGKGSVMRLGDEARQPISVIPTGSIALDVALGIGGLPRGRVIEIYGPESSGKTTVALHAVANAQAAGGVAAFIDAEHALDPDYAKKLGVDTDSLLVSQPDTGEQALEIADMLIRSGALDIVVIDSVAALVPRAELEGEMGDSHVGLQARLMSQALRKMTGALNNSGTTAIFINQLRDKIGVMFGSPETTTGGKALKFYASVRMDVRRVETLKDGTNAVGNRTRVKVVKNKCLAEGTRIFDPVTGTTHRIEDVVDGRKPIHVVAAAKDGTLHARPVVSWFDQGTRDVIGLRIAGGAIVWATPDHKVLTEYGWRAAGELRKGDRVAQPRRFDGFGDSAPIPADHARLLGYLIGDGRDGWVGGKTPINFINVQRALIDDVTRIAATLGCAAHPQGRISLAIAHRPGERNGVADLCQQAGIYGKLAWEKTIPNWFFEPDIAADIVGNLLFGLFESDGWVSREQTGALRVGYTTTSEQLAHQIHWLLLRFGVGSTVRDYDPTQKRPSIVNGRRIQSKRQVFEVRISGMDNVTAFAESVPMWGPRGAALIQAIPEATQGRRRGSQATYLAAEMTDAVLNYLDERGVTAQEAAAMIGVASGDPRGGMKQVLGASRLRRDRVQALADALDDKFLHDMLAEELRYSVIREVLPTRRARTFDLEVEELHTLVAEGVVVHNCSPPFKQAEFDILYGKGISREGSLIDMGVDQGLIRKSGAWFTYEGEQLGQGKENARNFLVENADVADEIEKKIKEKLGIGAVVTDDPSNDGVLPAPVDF

[2] = biological target: T4, DNA repair protein RAD52 homolog (Homo sapiens, UniProt P43351); assay type: functional, biochemical
T4 sequence (P43351 whole entry): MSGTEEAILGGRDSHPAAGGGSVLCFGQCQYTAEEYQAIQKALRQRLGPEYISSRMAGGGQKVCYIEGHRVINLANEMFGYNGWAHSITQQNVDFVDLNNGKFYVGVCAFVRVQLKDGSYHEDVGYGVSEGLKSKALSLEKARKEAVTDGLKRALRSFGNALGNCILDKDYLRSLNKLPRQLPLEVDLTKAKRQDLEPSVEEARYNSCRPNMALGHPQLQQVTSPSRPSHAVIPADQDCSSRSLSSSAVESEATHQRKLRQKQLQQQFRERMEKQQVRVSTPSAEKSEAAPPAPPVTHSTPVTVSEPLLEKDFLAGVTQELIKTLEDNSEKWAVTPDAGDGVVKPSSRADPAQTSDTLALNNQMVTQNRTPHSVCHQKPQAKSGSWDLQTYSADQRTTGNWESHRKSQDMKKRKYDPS

[3] = biological target: T5, DNA repair and recombination protein RAD54-like (Homo sapiens, UniProt Q92698); assay: RAD54 Holliday junction migration blockers – biochemical, fluorescence, cherry-picked samples, dose series, confirmation (AID 651657); assay type: functional
T5 sequence (Q92698 whole entry): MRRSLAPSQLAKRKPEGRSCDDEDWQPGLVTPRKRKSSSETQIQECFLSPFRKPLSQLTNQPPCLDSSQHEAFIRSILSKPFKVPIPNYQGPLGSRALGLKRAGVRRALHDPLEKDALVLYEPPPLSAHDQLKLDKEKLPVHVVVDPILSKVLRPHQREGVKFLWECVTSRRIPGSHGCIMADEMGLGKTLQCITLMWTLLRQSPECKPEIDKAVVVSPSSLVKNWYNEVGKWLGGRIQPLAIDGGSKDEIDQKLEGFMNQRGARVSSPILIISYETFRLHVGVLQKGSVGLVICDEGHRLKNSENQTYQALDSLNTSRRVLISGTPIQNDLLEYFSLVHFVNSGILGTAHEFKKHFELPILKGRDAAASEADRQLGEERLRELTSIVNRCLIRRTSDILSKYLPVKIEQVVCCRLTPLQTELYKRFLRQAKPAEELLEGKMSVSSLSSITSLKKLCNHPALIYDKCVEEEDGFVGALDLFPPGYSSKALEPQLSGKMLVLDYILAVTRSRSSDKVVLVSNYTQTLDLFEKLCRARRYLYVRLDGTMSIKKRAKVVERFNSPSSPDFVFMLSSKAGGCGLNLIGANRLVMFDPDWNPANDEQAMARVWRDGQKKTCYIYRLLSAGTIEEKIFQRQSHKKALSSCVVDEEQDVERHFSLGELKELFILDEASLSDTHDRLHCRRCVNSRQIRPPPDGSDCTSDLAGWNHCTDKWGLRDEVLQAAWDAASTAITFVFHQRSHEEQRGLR

[4] = biological target: T6, Short transient receptor potential channel 4 (Mus musculus, UniProt Q9QUQ5); assay: block of DAMGO-driven TRPC4 calcium entry – cell-based, HEK293 TRPC4/mu-opioid, Fluo-4 calcium, dose response (AID 434942); assay type: functional;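 also: potency of inhibitors blocking the TRPC4 calcium response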
T6 sequence (Q9QUQ5 whole entry): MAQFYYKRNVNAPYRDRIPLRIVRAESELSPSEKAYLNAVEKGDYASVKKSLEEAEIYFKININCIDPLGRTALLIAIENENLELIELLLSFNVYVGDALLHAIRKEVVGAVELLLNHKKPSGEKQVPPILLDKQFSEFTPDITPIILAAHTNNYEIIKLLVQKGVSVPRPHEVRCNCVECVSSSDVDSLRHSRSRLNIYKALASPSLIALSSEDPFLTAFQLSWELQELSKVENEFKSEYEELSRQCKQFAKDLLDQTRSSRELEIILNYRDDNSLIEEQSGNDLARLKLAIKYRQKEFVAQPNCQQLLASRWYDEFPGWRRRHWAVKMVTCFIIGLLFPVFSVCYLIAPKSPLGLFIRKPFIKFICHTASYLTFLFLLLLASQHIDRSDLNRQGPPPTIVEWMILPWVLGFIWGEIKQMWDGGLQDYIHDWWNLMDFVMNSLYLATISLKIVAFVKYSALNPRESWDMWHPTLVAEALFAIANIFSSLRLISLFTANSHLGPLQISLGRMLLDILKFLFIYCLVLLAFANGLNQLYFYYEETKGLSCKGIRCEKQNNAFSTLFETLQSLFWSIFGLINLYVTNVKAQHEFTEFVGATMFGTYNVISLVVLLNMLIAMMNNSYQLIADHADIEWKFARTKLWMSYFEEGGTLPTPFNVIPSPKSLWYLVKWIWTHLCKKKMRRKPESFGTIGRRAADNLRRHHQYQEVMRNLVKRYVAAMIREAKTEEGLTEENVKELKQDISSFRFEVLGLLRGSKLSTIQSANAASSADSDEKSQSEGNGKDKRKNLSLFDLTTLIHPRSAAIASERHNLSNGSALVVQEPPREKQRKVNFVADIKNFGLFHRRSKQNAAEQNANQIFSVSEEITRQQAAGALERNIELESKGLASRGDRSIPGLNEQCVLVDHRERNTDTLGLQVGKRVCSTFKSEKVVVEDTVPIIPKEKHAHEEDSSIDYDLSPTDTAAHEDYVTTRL

[5] = biological target: Heat shock protein HSP 90-alpha (Homo sapiens, UniProt P07900); assay type: functional, organism-based
[6] = biological target: T7, Ubiquitin-conjugating enzyme E2 N (Homo sapiens, UniProt P61088); assay type: functional;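 also: Dose-response confirmation in a TR-FRET assay detecting UBC13-driven polyubiquitin chain formation, inhibition measured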
T7 sequence (P61088 whole entry): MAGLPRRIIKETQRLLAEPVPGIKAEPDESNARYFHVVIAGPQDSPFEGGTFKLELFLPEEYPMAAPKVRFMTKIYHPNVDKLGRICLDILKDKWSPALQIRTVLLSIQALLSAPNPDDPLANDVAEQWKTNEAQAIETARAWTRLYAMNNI

INS1 = assay: INS-1E survival protection against cytokine death – cell-based, luminescence, retest, dose response (AID 449756); assay type: functional; conditions: Rattus norvegicus;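 also: cell death triggered by IL-1 beta plus TNF-alpha plus IFN-gamma mixture; protective hits raise ATP signal compared with cytokine alone wells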
[7] = P. falciparum Dd2 growth inhibitors, dose response, SYBR Green, cherry-picked samples (AID 1159567); assay type: functional, cell-based
Large T antigen = Large T antigen (Simian virus 40, UniProt P03070); assay type: functional, Betapolyomavirus macacae;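 also: Confirmatory-stage PubChem screen for compounds that inhibit SV40 T antigen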
Sequence of Large T antigen (P03070 whole entry): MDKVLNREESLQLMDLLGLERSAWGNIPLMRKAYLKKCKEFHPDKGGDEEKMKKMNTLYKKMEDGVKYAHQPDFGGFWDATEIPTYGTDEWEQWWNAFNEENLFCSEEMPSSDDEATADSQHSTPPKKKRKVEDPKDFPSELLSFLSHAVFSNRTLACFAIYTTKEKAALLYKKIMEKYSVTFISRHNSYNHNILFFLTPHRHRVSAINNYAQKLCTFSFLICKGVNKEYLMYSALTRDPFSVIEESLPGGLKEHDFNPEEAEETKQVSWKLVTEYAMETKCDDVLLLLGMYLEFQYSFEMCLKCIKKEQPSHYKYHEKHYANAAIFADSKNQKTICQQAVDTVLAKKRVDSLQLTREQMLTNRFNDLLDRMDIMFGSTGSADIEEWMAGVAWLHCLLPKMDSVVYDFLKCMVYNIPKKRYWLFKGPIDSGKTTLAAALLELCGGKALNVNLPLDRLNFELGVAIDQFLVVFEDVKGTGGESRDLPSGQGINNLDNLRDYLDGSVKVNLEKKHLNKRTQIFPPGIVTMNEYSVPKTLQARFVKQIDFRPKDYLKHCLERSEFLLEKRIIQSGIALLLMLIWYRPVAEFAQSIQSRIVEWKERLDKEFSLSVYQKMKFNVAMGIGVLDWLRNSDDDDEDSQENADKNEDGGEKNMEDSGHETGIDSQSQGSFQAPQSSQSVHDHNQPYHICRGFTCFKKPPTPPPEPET

Sequence of Nonstructural protein 1 (Q194T2 whole entry): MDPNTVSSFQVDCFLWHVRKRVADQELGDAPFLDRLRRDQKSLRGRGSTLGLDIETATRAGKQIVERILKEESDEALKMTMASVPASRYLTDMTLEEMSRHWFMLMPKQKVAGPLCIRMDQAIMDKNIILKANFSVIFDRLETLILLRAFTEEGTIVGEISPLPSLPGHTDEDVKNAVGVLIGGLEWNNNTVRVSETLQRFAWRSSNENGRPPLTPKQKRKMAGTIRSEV

CC(=O)N1/C(=C/c2ccc(N(C)C)cc2)C(=O)c2ccccc21
IC50 (Nonstructural protein 1): 16.7 µM (active)
IC50 (Protein skinhead-1): 76.9 µM (inactive)

O=C(CSc1n[nH]c(-c2ccccn2)n1)Nc1ccccc1F
IC50 (Nonstructural protein 1): 7.23 µM (active)

N#CCCN(C(=O)CCl)c1cccc(Cl)c1
AC50 [1]: 78.4 µM (active)
EC50 (Protein RecA): 8.64 µM (active)

N#CC1=C(N)Oc2[nH]nc(-c3ccc(F)cc3)c2C1c1cccc(OC(=O)N2CCOCC2)c1 (stereo not drawn)
AC50 [1]: 6.74 µM (active)
EC50 (Protein RecA): 1.29 µM (active)

O=C(NN=Cc1cccc([N+](=O)[O-])c1)c1cc[n+](CCO)cc1
AC50 [2]: 14.1 µM (active)

COc1ccc(Nc2cc(C)nc3ccc(OC)cc23)cc1
AC50 [2]: 15 µM (active)
AC50 [3]: 20.5 µM (active)
EC50 [4]: 4.73 µM (active)

Cc1ccc(-n2nc(C)c3c2OC(N)=C(C#N)C3c2ccoc2)cc1 (stereo not drawn)
AC50 [1]: 5.41 µM (active)
EC50 (Protein RecA): 2.56 µM (active)

CCOc1ccccc1-c1c2cc(O)c(=O)cc-2oc2cc(O)c(O)cc12
IC50 (Nonstructural protein 1): 28.1 µM (active)
AC50 [5]: 6.24 µM (active)

CN(C)c1ccc(NC(=O)CN2CCC(NC(=O)C3CCCCC3)CC2)cc1
IC50 [6]: > 20 µM (inactive)
AC50 [2]: 14.8 µM (active)

c1cncc(CNc2ncnc3sc4c(c23)CCCC4)c1
AC50 [1]: > 380 µM (inactive)
EC50 (Protein RecA): > 380 µM (inactive)

CN(C)CCNC(=O)c1cccc(-c2cnc3c(NC=O)cc(-c4ccc(S(C)(=O)=O)cc4)cn23)c1
AC50 [2]: 5.29 µM (active)
AC50 [3]: 24.1 µM (active)

Nc1nonc1-n1nnc(C(=O)N/N=C/c2ccccc2O)c1CN1CCCC1
IC50 (Nonstructural protein 1): 11.4 µM (active)
AC50 (INS1): 5.79 µM (active)

O=C(C[C@H]1CC[C@@H]2[C@H](COC[C@H](O)CN2Cc2cc(F)ccc2F)O1)N[C@@H]1CCN(Cc2ccccc2)C1
AC50 [7]: 7.42 µM (active)

CN1c2ccc(-c3ccccc3)cc2[C@@H]2[C@@H](CCN2C(=O)c2ccccc2)[C@H]1CO
AC50 [7]: 8.29 µM (active)

CN1CCN(c2nc(Nc3ccc(O)cc3)nc3ccccc23)CC1
IC50 (Large T antigen): 8.58 µM (active)
AC50 [2]: 5.21 µM (active)

COc1cc2c(cc1OC)-c1cc3ccc(OC)c(OC)c3c[n+]1CC2 [PALMATINE CHLORIDE]
AC50 [2]: 5.19 µM (active)
